This note sets out measurements from US8658791B2, “2-substituted-6-amino-5-alkyl, alkenyl or alkynyl-4-pyrimidinecarboxylic acids and 6-substituted-4-amino-3-alkyl, alkenyl or alkynyl picolinic acids and their use as herbicides” (Dow AgroSciences, LLC, priority 2007, dated 2014).

Structures are written as SMILES.

Series [1] concerns lambsquarter (Chenopodium album). Put plainly: General postemergence herbicidal activity, CHEAL. Format: in vivo. The note with it: Chenopodium album, post-emergence, 336 h, postemergence spray, visual score after 14 days, 0 = no injury, 100 = complete kill, read-out: Post-emergent Weed Control CHEAL; for pest or weed control at 280 g/ha: 280 g ai/ha; for pest or weed control at 140 g/ha: 140 g ai/ha. An outline of the steps: (§1)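 Postemergence spray, 187 L/ha track sprayer, first–second true leaf stage; highest rate plus 1/2X, 1/4X, 1/8X, 1/16X. Sub-irrigated greenhouse, 14 d. Visual injury vs untreated, 0 = none, 100 = complete kill.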

For series [2], the system named is velvetleaf (Abutilon theophrasti). Put plainly: General postemergence herbicidal activity, ABUTH. Format: in vivo. As to conditions: Abutilon theophrasti, post-emergence, 336 h, postemergence spray, visual score after 14 days, 0 = no injury, 100 = complete kill, read-out: Post-emergent Weed Control ABUTH; for pest or weed control at 280 g/ha: 280 g ai/ha; for pest or weed control at 140 g/ha: 140 g ai/ha. An outline of the steps:
as §1

Series [3] deals with wild poinsettia (Euphorbia heterophylla). Put plainly: General postemergence herbicidal activity, EPHHL. Format: in vivo. As to conditions: Euphorbia heterophylla, post-emergence, 336 h, postemergence spray, visual score after 14 days, 0 = no injury, 100 = complete kill, read-out: Post-emergent Weed Control EPHHL; for pest or weed control at 280 g/ha: 280 g ai/ha; for pest or weed control at 140 g/ha: 140 g ai/ha. The gist of the method: as §1

For series [4], the system named is barnyardgrass (Echinochloa crus-galli). The series is described as follows: General postemergence herbicidal activity, ECHCG. Format: in vivo. As to conditions: Echinochloa crus-galli, post-emergence, 336 h, postemergence spray, visual score after 14 days, 0 = no injury, 100 = complete kill, read-out: Post-emergent Weed Control ECHCG; for pest or weed control at 280 g/ha: 280 g ai/ha; for pest or weed control at 140 g/ha: 140 g ai/ha. An outline of the steps:
as §1

Series [5] has as its system rice (Oryza sativa). Put plainly: General postemergence herbicidal activity, ORYSA. Format: in vivo. As to conditions: Oryza sativa, post-emergence, 336 h, postemergence spray, visual score after 14 days, 0 = no injury, 100 = complete kill, read-out: Post-emergent Weed Control ORYSA; for plant injury at 280 g/ha: 280 g ai/ha; for plant injury at 140 g/ha: 140 g ai/ha. The gist of the method: as §1

The subject of series [6] is lambsquarter (Chenopodium album). Put plainly: General preemergence herbicidal activity, CHEAL. The note with it: applied to soil surface, visual score after 20-22 days, 0 = no injury, 100 = complete kill or no emergence, read-out: Pre-emergent Weed Control CHEAL; for pest or weed control at 140 g/ha: 140 g ai/ha. Format: in vivo. The text has this: (§2) Seeds of the desired test plant species were planted in a soil matrix prepared by mixing a loam soil (43 percent silt, 19 percent clay, and 38 percent sand, with a pH of about 8.1 and an organic matter content of about 1.5 percent) and sand in a 70 to 30 ratio. The soil matrix was contained in plastic pots with a surface area of 127 square centimeters. When required to ensure good germination and healthy plants, a fungicide treatment and/or other chemical or physical treatment was applied. A weighed amount, determined by the highest rate to be tested, of each test compound was placed in a 25 mL glass vial and was dissolved in 6 mL of a 97:3 v/v (volume/volume) mixture of acetone and DMSO to obtain concentrated stock solutions. […] The stock solutions obtained were diluted with 18 mL of a 0.1% v/v aqueous solution of Tween® 20 surfactant to obtain spray solutions containing the highest application rate. Additional application rates were obtained by serial dilution of 12 mL of the high rate solution into a solution containing 3 mL of 97:3 v/v mixture of acetone and DMSO and 9 mL of the 0.1% v/v aqueous solution of Tween® 20 surfactant to obtain 1/2X, 1/4X, 1/8X and 1/16X rates of the high rate. Compound requirements are based upon a 12 mL application volume at a rate of 187 L/ha. Formulated compounds were applied to the soil surface with an overhead Mandel track sprayer equipped with a […] nozzles calibrated to deliver 187 L/ha over an application area of 0.503 square meters at a spray height of 18 inches (43 cm) above the soil surface. Control pots were sprayed in the same manner with the solvent blank. The treated pots and control pots were placed in a greenhouse maintained with an approximate 15 hour photoperiod and temperatures of about 23-29° C. during the day and 22-28° C. during the night. Nutrients and water were added on a regular basis and supplemental lighting was provided with overhead metal halide 1000-Watt lamps as necessary. The water was added by top-irrigation. After 20-22 days, the condition of the test plants that germinated and grew as compared with that of the untreated plants that emerged and grew was determined visually and scored on a scale of 0 to 100 percent where 0 corresponds to no injury and 100 corresponds to complete kill or no emergence.

Series [7] concerns velvetleaf (Abutilon theophrasti). Put plainly: General preemergence herbicidal activity, ABUTH. Format: in vivo. The note with it: applied to soil surface, visual score after 20-22 days, 0 = no injury, 100 = complete kill or no emergence, read-out: Pre-emergent Weed Control ABUTH; for pest or weed control at 140 g/ha: 140 g ai/ha.
Text: as §2

Series [8] relates to wild poinsettia (Euphorbia heterophylla). Put plainly: General preemergence herbicidal activity, EPHHL. Format: in vivo. As to conditions: applied to soil surface, visual score after 20-22 days, 0 = no injury, 100 = complete kill or no emergence, read-out: Pre-emergent Weed Control EPHHL; for pest or weed control at 140 g/ha: 140 g ai/ha.
Text: as §2

In series [9] the test system is barnyardgrass (Echinochloa crus-galli). Put plainly: General preemergence herbicidal activity, ECHCG. Format: in vivo. The note with it: applied to soil surface, visual score after 20-22 days, 0 = no injury, 100 = complete kill or no emergence, read-out: Pre-emergent Weed Control ECHCG; for pest or weed control at 140 g/ha: 140 g ai/ha.
Text: as §2

The test system of series [10] is rice (Oryza sativa). The series is described as follows: General preemergence herbicidal activity, ORYSA. Format: in vivo. The note with it: applied to soil surface, visual score after 20-22 days, 0 = no injury, 100 = complete kill or no emergence, read-out: Pre-emergent Weed Control ORYSA; for plant injury at 140 g/ha: 140 g ai/ha.
Text: as §2

One may read the melting point as the temperature of the solid-liquid transition. Compound `COC(=O)c1nc(-c2ccc(Cl)c(OC)c2F)nc(N)c1C` [Compound 2, 6-Amino-2-(4-chloro-2-fluoro-3-methoxyphenyl)-5-methylpyrimidine-4-carboxylic acid methyl ester] yielded a melting point of 168 to 170 °C. In addition, in series [1], the pest or weed control at 280 g/ha came to 100%. The pest or weed control at 280 g/ha in [2] was 95%. In [3], the pest or weed control at 280 g/ha is 100%. In series [4], the pest or weed control at 280 g/ha is 95%. Also, in series [5], the plant injury at 280 g/ha is 0%. The pest or weed control at 140 g/ha in series [6] was determined as 80%. Besides, in series [7], the pest or weed control at 140 g/ha was determined as 40%. Also, in series [8], the pest or weed control at 140 g/ha is 95%. The pest or weed control at 140 g/ha in [9] is 0%. Besides, the plant injury at 140 g/ha in [10] is 15%.
In the case of `C=Cc1c(N)nc(C2CC2)nc1C(=O)OCC` [Compound 4, 6-Amino-2-cyclopropyl-5-vinylpyrimidine-4-carboxylic acid ethyl ester], the melting point is 155 to 157 °C. For the same compound, the pest or weed control at 140 g/ha in series [1] was 100%. The pest or weed control at 140 g/ha in [2] is 100%. For the same compound, the pest or weed control at 140 g/ha in series [3] stood at 100%. In addition, in series [4], the pest or weed control at 140 g/ha turned out to be 0%. Further, the plant injury at 140 g/ha in series [5] was found to be 0%. Moreover, in series [6] (280 g ai/ha), the pest or weed control at 280 g/ha was found to be 100%. Moreover, the pest or weed control at 280 g/ha in [7] (280 g ai/ha) was 90%. The pest or weed control at 280 g/ha in series [8] (280 g ai/ha) was determined as 100%. Besides, the pest or weed control at 280 g/ha in series [9] (280 g ai/ha) turned out to be 50%. Also, the plant injury at 280 g/ha in [10] (280 g ai/ha) was 0%.
In turn, `C=Cc1c(N)nc(-c2ccc(Cl)cc2F)nc1C(=O)OC` [Compound 5, 6-Amino-2-(4-chloro-2-fluorophenyl)-5-vinylpyrimidine-4-carboxylic acid methyl ester] yielded a melting point of 137 to 139 °C. Moreover, the pest or weed control at 140 g/ha in series [1] is 100%. Also, in series [2], the pest or weed control at 140 g/ha is 100%. In series [3], the pest or weed control at 140 g/ha was 100%. Besides, in series [4], the pest or weed control at 140 g/ha worked out at 80%. The plant injury at 140 g/ha in series [5] turned out to be 5%. The pest or weed control at 140 g/ha in series [6] came to 95%. In series [7], the pest or weed control at 140 g/ha came to 100%. Also, the pest or weed control at 140 g/ha in series [8] was 90%. Also, the pest or weed control at 140 g/ha in [9] was determined as 0%. In addition, the plant injury at 140 g/ha in [10] amounted to 10%.
Take `C=Cc1c(N)nc(-c2ccc(Cl)c(C(C)F)c2F)nc1C(=O)OC` (stereo not drawn) [Compound 14, 6-amino-2-(4-chloro-2-fluoro-3-(1-fluoroethyl)phenyl)-5-vinylpyrimidine-4-carboxylic acid methyl ester]: the melting point lay in the range of 144 to 147 °C. In series [1] (70 g ai/ha), the pest or weed control at 70 g/ha worked out at 100%. The pest or weed control at 70 g/ha in series [2] (70 g ai/ha) was 100%. Besides, the pest or weed control at 70 g/ha in series [3] (70 g ai/ha) is 100%. For the same compound, in series [4] (70 g ai/ha), the pest or weed control at 70 g/ha turned out to be 100%. Also, in [5] (70 g ai/ha), the plant injury at 70 g/ha came to 10%. In [6], the pest or weed control at 140 g/ha was determined as 100%. Also, the pest or weed control at 140 g/ha in series [7] turned out to be 100%. The pest or weed control at 140 g/ha in [8] was found to be 100%. Moreover, in series [9], the pest or weed control at 140 g/ha is 95%. Also, in series [10], the plant injury at 140 g/ha came to 95%.
In the case of `C=Cc1c(N)cc(-c2ccc(Cl)c(OC)c2F)nc1C(=O)OC` [Compound 28, 4-Amino-6-(4-chloro-2-fluoro-3-methoxyphenyl)-3-vinylpyridine-2-carboxylic acid methyl ester], the melting point is 118 to 121 °C. In addition, the pest or weed control at 280 g/ha in series [1] worked out at 75%. The pest or weed control at 280 g/ha in series [2] worked out at 85%. In addition, the pest or weed control at 280 g/ha in series [3] was determined as 90%. Besides, the pest or weed control at 280 g/ha in series [4] is 75%. Also, in series [5], the plant injury at 280 g/ha was 0%. In addition, in series [6], the pest or weed control at 140 g/ha is 95%. Moreover, the pest or weed control at 140 g/ha in series [7] turned out to be 95%. Besides, the pest or weed control at 140 g/ha in [8] was 100%. Moreover, the pest or weed control at 140 g/ha in [9] stood at 70%. In series [10], the plant injury at 140 g/ha turned out to be 20%.
Consider `COc1c(Cl)ccc(-c2nc(N)c(C)c(C(=O)O)n2)c1F` [Compound 53, 6-amino-2-(4-chloro-2-fluoro-3-methoxyphenyl)-5-methylpyrimidine-4-carboxylic acid], for which the melting point is 201 to 203 °C. Besides, the pest or weed control at 140 g/ha in series [1] amounted to 100%. In [2], the pest or weed control at 140 g/ha turned out to be 90%. For the same compound, the pest or weed control at 140 g/ha in [3] came out at 100%. The pest or weed control at 140 g/ha in series [4] worked out at 90%. For the same compound, in series [5], the plant injury at 140 g/ha is 0%. Further, in [6], the pest or weed control at 140 g/ha was 100%. In [7], the pest or weed control at 140 g/ha is 100%. The pest or weed control at 140 g/ha in series [8] turned out to be 100%. Besides, the pest or weed control at 140 g/ha in series [9] turned out to be 80%. In series [10], the plant injury at 140 g/ha stood at 0%.
